Laboratory results published in US7097856B2, “Dendrimeric support or carrier macromolecule” (priority 2000, dated 2006).

Tested on: complementary strand of DNA
Assay: Thermal denaturation of DNA-dendrimer conjugate hybridized with complementary strand
Type: binding

Substance: native: unmodified single stranded DNA, sequence TTC TCT TCA GTT CAC A (5′ to 3′) (DNA TTCTCTTCAGTTCACA; unmodified DNA)
- Tm (thermal denaturation, melting temperature): 52.3 °C
